Data on eight molecules can be found in publication PMC9019904, “AD Informer Set: Chemical tools to facilitate Alzheimer's disease drug discovery” (Alzheimer's & Dementia : Translational Research & Clinical …, 2022).

The test system of experiment [1] is BV2 (mouse microglia) cell line. Nature of the experiment: pHrodo-myelin phagocytosis/cell viability high content imaging assay: viability (cell count, nuclear area, nuclear intensity). As to conditions: BV2; compound 10 uM; 48 hours treatment. An outline of the steps: (§1)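 Viability was read as total cell count per well by high-content imaging, with mean average nuclear intensity per cell profiling apoptosis (rise early, fall late). Compounds were given at 10 μM for 48 h, pHrodo-myelin being added for the final 20 h. Values are means of two points as % untreated control.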

The test system of experiment [2] is HMC3 (human microglia) cell line. The description is as above. As to conditions: HMC3; compound 10 uM; 48 hours treatment. An outline of the steps:
as §1

Experiment [3] deals with BV2 (mouse microglia) cell line. Nature of the experiment: pHrodo-myelin phagocytosis/cell viability high content imaging assay: phagocytosis signal. The class given is cell-based. As to conditions: BV2; compound 10 uM; pHrodo-myelin. An outline of the steps:
(§2)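 HCI read-out ~22 h post pHrodo-myelin; phagocytosis + viability simultaneously; 3 parameters extracted; intensity up = early apoptosis, down = later apoptosis.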

The subject of experiment [4] is HMC3 (human microglia) cell line. The description is as above. The class given is cell-based. Particulars: HMC3; compound 10 uM; pHrodo-myelin. An outline of the steps: as §2

Turning to `Oc1cc(CNC(=S)/C=C/c2cc(O)c(O)c(Br)c2)cc(O)c1O` [UNC10302699A], in experiment [1], the “1. Cell count (% control)” value amounted to 17.7 % control, the “2. Nuclear Area (% Control)” value came to 116.2 % Control and the “3. Nuclear DNA Intensity (% control)” value stood at 76.1 % control. In experiment [2], the “1. Cell count (% control)” value was 53.7 % control, the “2. Nuclear Area (% Control)” value turned out to be 113.5 % Control and the “3. Nuclear DNA Intensity (% control)” value is reported as 119.4 % control. Besides, the “4. Phagocytosis (% control)” value in experiment [3] is listed as 235.2 % control. In addition, in experiment [4], the “4. Phagocytosis (% control)” value stood at 92.5 % control.

`CSc1ccc2c(c1)c(CCN)c(C)n2Cc1ccc(Cl)cc1Cl.Cl` [UNC10302700A]: in experiment [1], the “1. Cell count (% control)” value is reported as 22.6 % control, the “2. Nuclear Area (% Control)” value was determined as 113.6 % Control and the “3. Nuclear DNA Intensity (% control)” value is 33.9 % control. In experiment [2], the “1. Cell count (% control)” value stood at 10.1 % control, the “2. Nuclear Area (% Control)” value is given as 49.3 % Control and the “3. Nuclear DNA Intensity (% control)” value came out at 146.5 % control. Further, the “4. Phagocytosis (% control)” value in experiment [3] was 0.00395 % control. Further, in experiment [4], the “4. Phagocytosis (% control)” value was determined as 0.0 % control.

Turning to `COc1ccc(CC[C@@H](OC(=O)[C@@H]2CCCCN2C(=O)[C@H](c2cc(OC)c(OC)c(OC)c2)C2CCCCC2)c2cccc(OCC(=O)O)c2)cc1OC` [UNC10302701A], in experiment [1], the “1. Cell count (% control)” value is 117.8 % control, the “2. Nuclear Area (% Control)” value is listed as 104.1 % Control and the “3. Nuclear DNA Intensity (% control)” value amounted to 103.5 % control. Moreover, in experiment [2], the “1. Cell count (% control)” value came to 116.9 % control, the “2. Nuclear Area (% Control)” value was determined as 101.8 % Control and the “3. Nuclear DNA Intensity (% control)” value came out at 97.5 % control. In addition, in experiment [3], the “4. Phagocytosis (% control)” value is on record as 156.6 % control. In experiment [4], the “4. Phagocytosis (% control)” value came out at 71.9 % control.

With `CN(C)CCCOc1c(Br)cc(/C=C/C(=O)NCCCOc2c(Br)cc(CCN(C)C)cc2Br)cc1Br` [UNC10302702A], in experiment [1], the “1. Cell count (% control)” value stood at 26.8 % control, the “2. Nuclear Area (% Control)” value is listed as 80.6 % Control and the “3. Nuclear DNA Intensity (% control)” value came out at 57.8 % control. Besides, in experiment [2], the “1. Cell count (% control)” value is 39.0 % control, the “2. Nuclear Area (% Control)” value is on record as 54.1 % Control and the “3. Nuclear DNA Intensity (% control)” value was found to be 166.0 % control. Moreover, the “4. Phagocytosis (% control)” value in experiment [3] came to 0.0 % control. The “4. Phagocytosis (% control)” value in experiment [4] turned out to be 0.00724 % control.

For `Cc1cc(O)cc2c1[C@]1(C)CCC3C(C)(C)CCC[C@]3(C)[C@H]1C2` (stereo partly shown) [UNC10302703A], the figures for the “1. Cell count (% control)” value in experiment [1] and in experiment [2] were 88.9 % control and 107.3 % control, respectively. The “2. Nuclear Area (% Control)” value in experiment [1] was determined as 108.7 % Control; in experiment [2], 104.4 % Control. Besides, the “3. Nuclear DNA Intensity (% control)” value in experiment [1] was determined as 100.3 % control; in experiment [2], 94.7 % control. Further, the “4. Phagocytosis (% control)” value in experiment [3] is listed as 179.0 % control; in experiment [4], 74.6 % control.

`C[C@H](NC(=O)c1sccc1OCc1ccc(Cl)cc1)c1ccccc1` [UNC10302704A]: the entries for the “1. Cell count (% control)” value in experiment [1] and in experiment [2] were 95.5 % control and 112.7 % control, respectively. Besides, the “2. Nuclear Area (% Control)” value came out at 101.0 % Control in experiment [1] and 95.6 % Control in experiment [2]. Moreover, the “3. Nuclear DNA Intensity (% control)” value came out at 97.2 % control in experiment [1] and 89.7 % control in experiment [2]. Also, the “4. Phagocytosis (% control)” value in experiment [3] is on record as 123.4 % control; in experiment [4], 66.4 % control.

On to `CCOC(=O)c1cccc(CNc2ccc(N(C)C(=O)Nc3ccccc3)cc2)c1` [UNC10302705A], for which, in experiment [1], the “1. Cell count (% control)” value amounted to 77.7 % control, the “2. Nuclear Area (% Control)” value came to 107.2 % Control and the “3. Nuclear DNA Intensity (% control)” value worked out at 109.9 % control. Further, in experiment [2], the “1. Cell count (% control)” value is on record as 79.1 % control, the “2. Nuclear Area (% Control)” value was determined as 96.2 % Control and the “3. Nuclear DNA Intensity (% control)” value is listed as 114.6 % control. The “4. Phagocytosis (% control)” value in experiment [3] came to 194.2 % control. In addition, the “4. Phagocytosis (% control)” value in experiment [4] stood at 139.7 % control.

`CCOC(=O)N1CCC(Nc2c(NCCN3CCN(c4cccc(C(F)(F)F)c4)CC3)c(=O)c2=O)CC1` [UNC10302706A]: in experiment [1], the “1. Cell count (% control)” value is 117.8 % control, the “2. Nuclear Area (% Control)” value came to 102.0 % Control and the “3. Nuclear DNA Intensity (% control)” value is given as 95.9 % control. Moreover, in experiment [2], the “1. Cell count (% control)” value amounted to 111.8 % control, the “2. Nuclear Area (% Control)” value came to 102.2 % Control and the “3. Nuclear DNA Intensity (% control)” value was 96.9 % control. The “4. Phagocytosis (% control)” value in experiment [3] is listed as 143.2 % control. In addition, the “4. Phagocytosis (% control)” value in experiment [4] was 75.0 % control.
